# Assays:
# M14 = test: NCI60 anti-cancer screening; conditions: for GI50 / CC50: Homo sapiens; for GI50 / GI 100%: M14; for CC50: M14, read-out: LC 50%; for GI 100%: Melanoma
# T-47D = test: NCI60 anti-cancer screening; conditions: for GI50 / CC50: Homo sapiens, T47D; for CC50: read-out: LC 50%; for GI 100%: T-47D, Breast Cancer
# HL-60(TB) = test: cells; conditions: Homo sapiens; for GI50: HL-60; for CC50: HL-60, read-out: LC 50%
# NCI-H23 = test: NCI60 anti-cancer screening; conditions: for GI50 / CC50: Homo sapiens; for GI50 / GI 100%: NCI-H23; for CC50: NCI-H23, read-out: LC 50%; for GI 100%: Non-small cell lung carcinoma
# NCI-H522 = test: NCI60 anti-cancer screening; conditions: for GI50 / CC50: Homo sapiens; for GI50 / GI 100%: NCI-H522; for CC50: NCI-H522, read-out: LC 50%; for GI 100%: Non-small cell lung carcinoma
# SF-539 = test: NCI60 anti-cancer screening; conditions: for GI50 / CC50: Homo sapiens; for GI50 / GI 100%: SF-539; for CC50: SF-539, read-out: LC 50%; for GI 100%: CNS Cancer
# HOP-92 = test: NCI60 anti-cancer screening; conditions: for GI 100% / GI50: HOP-92; for GI 100%: Non-small cell lung carcinoma; for GI50 / CC50: Homo sapiens; for CC50: HOP-92, read-out: LC 50%
# [1] = tested on: BJ-TERT/LT/ST/RAS^V12 cells; test: Counter screening with biologically active compounds; assay type: cell-based, human; conditions: for biologically active compounds that suppress compound-induced cell death: 36 bioactive compounds of Table 1, 24 hours, alamar blue
# Protocol: Biologically active compounds listed in Table 1 were dissolved in BJ medium at 10× final concentration and aliquoted into eppendorf tubes. 100 μL of each 10× solution was transferred to column 1 to column 12 or column 13 to column 24 of a single row in a 384-well daughter plate. This plate was designated as ‘10× biologically active plate’. In order to prepare lethal compound solution, Erastin and compounds 3, 6, 27, and 36 were dissolved in BJ medium at a concentration of 100 μg/mL, 400 μg/mL, 400 μg/mL, 100 μg/mL, and 200 μg/mL, respectively. Empty daughter plates were filled with 50 μL BJ media except for columns 5 and 13 where 100 μL of each lethal solution was transferred. After lethal solution transfer, 2-fold dilution series across columns 5 to 12 and columns 13 to 20 was made by transferring 50 μL compound solution to the next column successively (8-point dilution series), with mixing. These five plates were each designated ‘10× lethal plate’. Five assay plates were prepared by seeding 4,000 BJ-TERT/LT/ST/RAS^V12 cells per well in 32 μL of growth media in black, clear bottom 384-well plates. Cells in assay plates were first treated with biologically active compounds by transferring 4 μL from the 10× inhibitor plate. Cells were then treated with each lethal compound in a 2-fold dilution series by transferring 4 μL solution from each 10× lethal plate. […] Percent growth inhibition (% GI) was calculated by the following formula using fluorescence intensity values: % GI=100*(1−(X−N)/([…])) wherein X is the fluorescent intensity value measured at 590 nm for cells treated with biologically active compound and lethal compound; N is the fluorescent intensity value measured at 590 nm for a control containing no cells (i.e. biologically active compound in growth media); and P is the fluorescent intensity value measured at 590 nm for a control containing no lethal compound (i.e., cells treated with biologically active compound). Counter Screening with Iron Chelators
# CCRF-CEM = test: NCI60 anti-cancer screening; conditions: for GI50 / CC50: Homo sapiens; for CC50: read-out: LC 50%; for GI 100%: Leukemia
# [2] = tested on: BJ-derived cell lines (BJ-TERT/LT/ST/RAS^V12 cells); test: Vi-Cell analysis (trypan blue exclusion); assay type: cell-based, human; conditions: 24 hours
# Protocol: 200,000 cells were seeded in 6-well plates and treated with the indicated amount of 2-fold dilution series concentration of a candidate compound in 2 mL BJ growth medium. After 24 hours, cells were released with trypsin/EDTA, harvested in 1.1 mL growth medium, and transferred to a Vi-Cell (Beckman Coulter) disposable cup. After, trypan blue staining, 100 images of sample were taken and analysis of the images was carried out automatically by a Vi-Cell cell viability analyzer (Beckman Coulter).
# SK-MEL-28 = test: NCI60 anti-cancer screening; conditions: for GI50 / CC50: Homo sapiens; for GI50 / GI 100%: SK-MEL-28; for CC50: SK-MEL-28, read-out: LC 50%; for GI 100%: Melanoma
# UO-31 = test: NCI60 anti-cancer screening; conditions: for GI50 / CC50: Homo sapiens; for GI50 / GI 100%: UO-31; for CC50: UO-31, read-out: LC 50%; for GI 100%: Renal Cancer
# OVCAR-3 = conditions: Ovarian Cancer
# SW-620 = test: NCI60 anti-cancer screening; conditions: for GI50 / CC50: Homo sapiens; for GI50 / GI 100%: SW-620; for CC50: SW-620, read-out: LC 50%; for GI 100%: Colon Cancer
# OVCAR-4 = test: NCI60 anti-cancer screening; conditions: for GI50 / CC50: Homo sapiens; for GI50 / GI 100%: OVCAR-4; for CC50: OVCAR-4, read-out: LC 50%; for GI 100%: Ovarian Cancer
# NCI/ADR-RES = test: NCI60 anti-cancer screening; conditions: for GI 100%: Breast Cancer; for GI50 / CC50: Homo sapiens; for CC50: read-out: LC 50%
# OVCAR-8 = test: NCI60 anti-cancer screening; conditions: for GI50 / CC50: Homo sapiens; for GI50 / GI 100%: OVCAR-8; for CC50: OVCAR-8, read-out: LC 50%; for GI 100%: Ovarian Cancer
# HT29 = test: NCI60 anti-cancer screening; conditions: for GI 100%: HT29, Colon Cancer; for GI50 / CC50: Homo sapiens; for GI50: HT-29; for CC50: HT-29, read-out: LC 50%
# SK-MEL-2 = test: NCI60 anti-cancer screening; conditions: for GI50 / CC50: Homo sapiens; for GI50 / GI 100%: SK-MEL-2; for CC50: SK-MEL-2, read-out: LC 50%; for GI 100%: Melanoma
# DU-145 = test: NCI60 anti-cancer screening; conditions: for GI 100% / GI50: DU-145; for GI 100%: Prostate Cancer; for GI50 / CC50: Homo sapiens; for CC50: DU-145, read-out: LC 50%
# UACC-62 = test: NCI60 anti-cancer screening; conditions: for GI50 / CC50: Homo sapiens; for GI50 / GI 100%: UACC-62; for CC50: UACC-62, read-out: LC 50%; for GI 100%: Melanoma
smiles,measurement,setting,value
C=C1CCC2C(C)(C)CCC[C@]2(C)C1CC/C(C)=C\CC/C(C)=N/NC(N)=S (stereo partly drawn) [Compound 36],GI50,M14,384 nM
same,CC50,M14,4800 nM
same,GI 100%,M14,1.59 µM
same,GI50,T-47D,701 nM
same,CC50,T-47D,> 10000 nM
same,GI 100%,T-47D,3.21 µM
same,GI50,HL-60(TB),163 nM
same,CC50,HL-60(TB),2620 nM
same,GI50,NCI-H23,440 nM
same,CC50,NCI-H23,4230 nM
same,GI 100%,NCI-H23,1.65 µM
same,GI50,NCI-H522,82.9 nM
same,CC50,NCI-H522,1180 nM
same,GI 100%,NCI-H522,0.309 µM
same,GI50,SF-539,191 nM
same,CC50,SF-539,638 nM
same,GI 100%,SF-539,0.349 µM
same,GI 100%,HOP-92,1.52 µM
same,GI50,HOP-92,479 nM
same,CC50,HOP-92,3960 nM
same,biologically active compounds that suppress compound-induced cell death,[1],iron chelators (L-Mim and DFOM) and a protein synthesis inhibitor (cycloheximide) were effective
same,effect of MEK1/2 inhibitor (U0126) on compound-induced cell death,[1]; U0126 10 uM,inability of MEK1/2 inhibitors to suppress
same,GI50,CCRF-CEM,165 nM
same,CC50,CCRF-CEM,5570 nM
same,GI 100%,CCRF-CEM,0.705 µM
same,potency and selectivity by trypan blue exclusion (in words),[2],confirmed the growth inhibitory potency and selectivity
same,GI50,SK-MEL-28,239 nM
same,CC50,SK-MEL-28,2070 nM
same,GI 100%,SK-MEL-28,0.592 µM
same,GI50,UO-31,125 nM
same,CC50,UO-31,1470 nM
same,GI 100%,UO-31,0.385 µM
same,GI 100%,OVCAR-3,0.804 µM
same,GI50,SW-620,184 nM
same,CC50,SW-620,2540 nM
same,GI 100%,SW-620,0.569 µM
same,GI50,OVCAR-4,147 nM
same,CC50,OVCAR-4,1310 nM
same,GI 100%,OVCAR-4,0.405 µM
same,GI 100%,NCI/ADR-RES,2.34 µM
same,GI50,NCI/ADR-RES,1040 nM
same,CC50,NCI/ADR-RES,5270 nM
same,GI50,OVCAR-8,1160 nM
same,CC50,OVCAR-8,7480 nM
same,GI 100%,OVCAR-8,2.94 µM
same,GI 100%,HT29,1.37 µM
same,GI50,HT29,322 nM
same,CC50,HT29,4100 nM
same,GI50,SK-MEL-2,297 nM
same,CC50,SK-MEL-2,4930 nM
same,GI 100%,SK-MEL-2,1.01 µM
same,GI 100%,DU-145,2.35 µM
same,GI50,DU-145,1140 nM
same,CC50,DU-145,4840 nM
same,GI50,UACC-62,214 nM
same,CC50,UACC-62,853 nM
same,GI 100%,UACC-62,0.427 µM
COC(=O)c1ccc(C2c3[nH]c4ccccc4c3CC(C(=O)OC)N2C(=O)CCl)cc1 (stereo not drawn) [Compound 27],GI50,M14,1070 nM
same,CC50,M14,4750 nM
same,GI 100%,M14,2.25 µM
same,GI50,T-47D,1640 nM
same,CC50,T-47D,> 10000 nM
same,GI 100%,T-47D,5.16 µM
same,GI50,HL-60(TB),280 nM
same,CC50,HL-60(TB),1200 nM
same,GI50,NCI-H23,1150 nM
same,CC50,NCI-H23,7590 nM
same,GI 100%,NCI-H23,2.95 µM
same,GI50,NCI-H522,1630 nM
same,CC50,NCI-H522,8580 nM
same,GI 100%,NCI-H522,3.74 µM
same,GI50,SF-539,118 nM
same,CC50,SF-539,492 nM
same,GI 100%,SF-539,0.241 µM
same,GI 100%,HOP-92,1.07 µM
same,GI50,HOP-92,99.1 nM
same,CC50,HOP-92,5850 nM
same,"effect of pan-caspase inhibitors (z-VAD-fmk, Boc-D-fmk) on compound-induced cell death",[1],not blocked
same,biologically active compounds that suppress compound-induced cell death,[1],"GSH, L-Mim, TLCK, DFOM, SU6656, Ro31-8220, and U0126 were effective"
same,GI50,CCRF-CEM,19.5 nM
same,CC50,CCRF-CEM,95.3 nM
same,GI 100%,CCRF-CEM,0.0431 µM
same,potency and selectivity by trypan blue exclusion (in words),[2],confirmed Compound 27 cell growth inhibition activity and selectivity
same,GI50,SK-MEL-28,1620 nM
same,CC50,SK-MEL-28,6760 nM
same,GI 100%,SK-MEL-28,3.31 µM
same,GI50,UO-31,20 nM
same,CC50,UO-31,74.3 nM
same,GI 100%,UO-31,0.0385 µM
same,GI 100%,OVCAR-3,1.57 µM
same,GI50,SW-620,681 nM
same,CC50,SW-620,5250 nM
same,GI 100%,SW-620,2.09 µM
same,GI50,OVCAR-4,4300 nM
same,CC50,OVCAR-4,> 10000 nM
same,GI 100%,OVCAR-4,>10 µM
same,GI 100%,NCI/ADR-RES,>10 µM
same,GI50,NCI/ADR-RES,2560 nM
same,CC50,NCI/ADR-RES,> 10000 nM
same,GI50,OVCAR-8,2320 nM
same,CC50,OVCAR-8,> 10000 nM
same,GI 100%,OVCAR-8,>10 µM
same,GI 100%,HT29,1.46 µM
same,GI50,HT29,415 nM
same,CC50,HT29,4060 nM
same,GI50,SK-MEL-2,1740 nM
same,CC50,SK-MEL-2,9820 nM
same,GI 100%,SK-MEL-2,4.13 µM
same,GI 100%,DU-145,1.4 µM
same,GI50,DU-145,308 nM
same,CC50,DU-145,4010 nM
same,GI50,UACC-62,1210 nM
same,CC50,UACC-62,5040 nM
same,GI 100%,UACC-62,2.47 µM
